Read-outs that look alike come from different tables or passages of the source.
Legend:
[1] = Metabolism in the presence of human microsomal liver fractions; assay type: in vitro ADME; conditions: percentage disappearance, 5 μM, 20 minutes; for Human microsome: 1 mg/ml proteins, NADPH
Procedure: (§1) Evaluation of the Metabolism in the Presence of Microsomal Preparations of Human and Murine Livers.
(§2) The compounds of the invention (5 μM) are incubated at physiological temperature over human and murine microsomal liver fractions (1 mg/ml of proteins), diluted in a phosphate buffer, in the presence of bovine serum albumin (1 mg/ml BSA), and the reduced form of nicotinamide adenine dinucleotide phosphate (1 mM NADPH). To terminate incubation, four volumes of acetonitrile containing corticosterone as internal standard (IS) are added. The samples are centrifuged and the supernatants are analysed by liquid chromatography/tandem mass spectrometry coupling (LC/MS-MS). The LC/MS-MS analysis is performed on a QTRAP API4000 mass spectrometer (Sciex) equipped with an 1100 series chromatography system (Agilent) and a Pal CTC automatic injector. The data are acquired and analysed using Analyst 1.4.1 software. The samples are separated on a 3 μm C18 Polaris column, eluted at a flow rate of 0.7 ml/min with a gradient from acetonitrile (solvent B) into water containing 0.1% formic acid (solvent A). The elution programme is composed of the gradient from 20 to 90% of solvent B in 2 minutes, an isocratic stage at 90% of solvent B, for 0.9 minute, and a return to the initial conditions in 0.1 minute. The area of the chromatographic peaks for the compound and for the internal standard are integrated using the Analyst-Classic algorithm. The metabolic stability of the products of the invention is estimated by comparing the integration ratios (ion currents of the compounds/ion current IS) measured after 0 minute (t0) and 20 minutes (t20) of incubation. The metabolic stability is then expressed as a percentage disappearance in accordance with the following formula: Metabolism %=(ratio of peaks at t0−ratio of peaks at t20)/ratio of peaks at t0

[2] = target: PDE3A (Homo sapiens (Human), UniProt Q14432); assay: Effect on the activity of the enzyme PDE3 (CEREP, HTRF); conditions: for inhibition at 1 µM: read-out: PDE3 inhibition at 1000 nM; for IC50: read-out: IC50 PDE3, recombinant PDE3A, substrate cAMP
Excerpt: Evaluation of the Effect of the Compounds of the Invention on the Activity of the Enzyme PDE3

[3] = system: tumour cell line HeLa; assay: Cell proliferation, 14C-thymidine incorporation, HeLa; assay type: cell-based
Excerpt: Measurement of the Cell Proliferation

[4] = Metabolism in the presence of murine microsomal liver fractions; assay type: in vitro ADME; conditions: percentage disappearance, 5 μM, 20 minutes; for Mouse microsome: 1 mg/ml proteins, NADPH
Procedure: as §1, §2

[5] = target: Aurora B/Incenp (Homo sapiens (Human), UniProt Q96GD4); assay: Aurora B/Incenp kinase activity, radioactive 33P incorporation into NuMA fragment
Procedure: (§3) The kinase activity is measured by a radioactive assay of the amount of radioactive phosphate (^33P) incorporated into a fragment of the protein NuMA (Nuclear Mitotic Apparatus protein) after 30 minutes of incubation at 37° C. […] In each plate, there are eight control wells: four positive controls (maximum kinase activity), for which measurement is made in the presence of enzyme and substrate and in the absence of compound of the invention, and four negative controls (background) for which measurement is made in the absence of enzyme, substrate and test compound.
The two proteins form a complex which is called Aurora B/Incenp. […] This fragment is used as substrate.

[6] = target: Aurora A (Homo sapiens (Human), UniProt O14965); assay: Aurora A kinase activity, radioactive 33P incorporation into NuMA fragment
Procedure: as §3
The recombinant human enzyme Aurora A used is expressed in entire form with a poly-Histidine tag in N-terminal position and is produced in E. coli.

[7] = Chemical stability in various media (HPLC); assay type: physicochemical; conditions: 100 μM, 20° C., 48 hours
Procedure: Measurement of the Chemical Stability of the Compounds
The compounds are diluted in the media under study at a final concentration of 100 μM, by dilution of a 10 mM stock solution in DMSO. The solutions are stored at 20° C. for a total time of 48 hours, and the concentration of the compounds under study is measured over time (t=0, 1, 6, 12, 24 and 48 hours) by HPLC. HPLC analysis is carried out with an Agilent system 1100 instrument equipped with a diode array detector on a Luna 018 column, 30×4.6 mm, 3 μm (Phenomenex) which is eluted with a gradient from acetonitrile (solvent B) into water containing 0.5% (v/v) of formic acid (solvent A) at a flow rate of 1.5 ml/min and a temperature of 25° C. The elution programme consists of a gradient from 10 to 90% solvent B in 5 minutes, followed by an isocratic stage of one minute at 90% of solvent B, and return to the initial conditions over one minute. The concentration of the products under study is estimated from the height and area of the characteristic peak of the product under study on a chromatogram at the maximum wavelength of each product. The area and the height measured at each time of sampling are related to the area and height obtained for the sample at time 0. When degradation is observed, a half-life is measured from the resulting time-concentration curve.

[8] = system: HCT116; conditions: read-out: IC50 HCT116; HCT116, 96 hours treatment
Procedure: (§4) The cell proliferation is estimated by the amount of ^14C-thymidine incorporated in the cells.
(§5) D0: the cells are seeded in 96-well Cytostar plates in 180 μL of culture medium. The plates are then placed in an incubator at 37° C., 5% CO2 for four hours. The test products are then added in a volume of 10 μL per well, starting from a 20× solution. This solution contains 2% of DMSO in the culture medium. The final concentration of DMSO is therefore 0.1%. The plates are then placed in an incubator at 37° C./5% CO2 for 72 hours. D3: after 72 hours, 10 μL per well of ^14C-thymidine at 10 μCi/mL in the culture medium are added. The plates are then placed in an incubator at 37° C., 5% CO2 for 24 hours. D4: The incorporation of ^14C thymidine is measured on a Micro-Beta radioactivity counter (Perkin-Elmer) after this 24-hour, “pulse” period. The total time of treatment of the cells with the test product is 96 hours.
(§6) The percentage inhibitions IC50 are calculated in Excel using the following formula:
(§7) [formula] X=Measurement for the Sample CC=Cell Control Blank=Measurement in the wells without cells

[9] = Clearance in the presence of human hepatocytes; assay type: in vitro ADME; conditions: 0.5 or 5 μM, 24 hours, average over different preparations of hepatocytes
Procedure: The LC/MS-MS analysis is performed on a QTRAP API4000 mass spectrometer (Sciex) equipped with an 1100 series chromatography system (Agilent) and a Pal CTC automatic injector. The data are acquired and analysed using Analyst 1.4.1 software. The samples are separated on a 3 μm C18 Polaris column, eluted at a flow rate of 0.7 ml/min with a gradient from acetonitrile (solvent B) into water containing 0.1% formic acid (solvent A). The elution programme is composed of the gradient from 20 to 90% of solvent B in 2 minutes, an isocratic stage at 90% of solvent B, for 0.9 minute, and a return to the initial conditions in 0.1 minute.

[10] = system: HCT116; assay: cells; conditions: Homo sapiens, HCT-116, 96 h, read-out: IC50 HCT116
Procedure: as §4, §5, §6, §7

[11] = Homo sapiens, 96 h, read-out: IC50 HeLa
[12] = Homo sapiens, 96 hours treatment, read-out: IC50 HeLa (converted)
[13] = read-out: IC50 Aurora A, 10 nM Aurora A, 1 μM ATP, 500 nM NuMA, 30 min at 37° C.

Sequence of Aurora A (O14965 whole entry, the tested form may be a part): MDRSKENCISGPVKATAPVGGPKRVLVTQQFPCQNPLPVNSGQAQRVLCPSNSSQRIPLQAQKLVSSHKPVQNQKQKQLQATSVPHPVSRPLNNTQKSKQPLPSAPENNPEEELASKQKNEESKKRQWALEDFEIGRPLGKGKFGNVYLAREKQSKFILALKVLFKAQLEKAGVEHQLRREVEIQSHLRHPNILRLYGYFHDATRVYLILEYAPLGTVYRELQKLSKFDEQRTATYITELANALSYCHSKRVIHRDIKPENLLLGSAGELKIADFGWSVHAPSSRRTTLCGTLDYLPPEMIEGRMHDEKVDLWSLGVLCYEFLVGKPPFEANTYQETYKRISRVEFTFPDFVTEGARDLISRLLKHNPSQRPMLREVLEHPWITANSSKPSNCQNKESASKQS
Sequence of PDE3A (Q14432 whole entry): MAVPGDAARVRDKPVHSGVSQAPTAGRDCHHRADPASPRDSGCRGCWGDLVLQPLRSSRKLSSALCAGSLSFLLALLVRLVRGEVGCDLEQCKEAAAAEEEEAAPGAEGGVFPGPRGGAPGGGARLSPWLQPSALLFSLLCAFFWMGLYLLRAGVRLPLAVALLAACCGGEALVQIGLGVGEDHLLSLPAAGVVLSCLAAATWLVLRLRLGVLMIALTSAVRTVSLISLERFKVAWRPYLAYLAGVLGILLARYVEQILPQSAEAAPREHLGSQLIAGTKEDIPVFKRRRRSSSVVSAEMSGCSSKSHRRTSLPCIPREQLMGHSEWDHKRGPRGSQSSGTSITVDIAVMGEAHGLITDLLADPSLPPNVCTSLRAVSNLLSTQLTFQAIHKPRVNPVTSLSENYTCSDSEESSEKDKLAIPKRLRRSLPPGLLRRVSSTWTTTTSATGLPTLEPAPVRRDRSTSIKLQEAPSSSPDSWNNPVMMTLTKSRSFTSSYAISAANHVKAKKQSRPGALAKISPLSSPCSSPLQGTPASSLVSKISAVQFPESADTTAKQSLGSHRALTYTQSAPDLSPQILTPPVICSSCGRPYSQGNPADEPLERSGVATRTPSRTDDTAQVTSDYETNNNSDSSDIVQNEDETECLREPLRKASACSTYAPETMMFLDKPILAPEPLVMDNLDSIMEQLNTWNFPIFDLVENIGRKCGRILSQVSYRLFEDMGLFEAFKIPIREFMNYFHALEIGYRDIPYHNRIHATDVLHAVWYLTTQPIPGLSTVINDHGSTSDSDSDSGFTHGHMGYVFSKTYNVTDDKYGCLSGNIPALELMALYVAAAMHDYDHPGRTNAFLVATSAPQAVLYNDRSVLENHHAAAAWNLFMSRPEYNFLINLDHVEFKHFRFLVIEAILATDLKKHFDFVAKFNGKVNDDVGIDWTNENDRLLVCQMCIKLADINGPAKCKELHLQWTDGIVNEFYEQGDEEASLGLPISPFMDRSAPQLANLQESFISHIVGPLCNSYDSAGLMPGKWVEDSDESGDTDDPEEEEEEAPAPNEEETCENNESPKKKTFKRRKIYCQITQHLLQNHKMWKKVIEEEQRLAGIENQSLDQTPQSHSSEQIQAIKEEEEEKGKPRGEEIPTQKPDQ
Sequence of Aurora B/Incenp (Q96GD4 whole entry, the tested form may be a part): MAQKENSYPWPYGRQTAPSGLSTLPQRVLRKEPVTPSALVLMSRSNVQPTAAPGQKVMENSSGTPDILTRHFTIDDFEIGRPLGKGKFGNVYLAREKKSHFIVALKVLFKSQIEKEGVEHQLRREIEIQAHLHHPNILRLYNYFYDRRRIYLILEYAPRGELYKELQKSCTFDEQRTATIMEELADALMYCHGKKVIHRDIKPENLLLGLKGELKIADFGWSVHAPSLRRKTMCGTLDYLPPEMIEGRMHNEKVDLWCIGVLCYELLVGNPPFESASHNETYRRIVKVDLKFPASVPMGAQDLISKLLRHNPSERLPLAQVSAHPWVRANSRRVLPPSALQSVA
Sequence of Aurora B/Incenp (Q9NQS7 821-918 partner): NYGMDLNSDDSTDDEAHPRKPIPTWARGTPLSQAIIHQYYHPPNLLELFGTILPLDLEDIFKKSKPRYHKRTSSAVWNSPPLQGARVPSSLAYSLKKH

| IC50 [5] | IC50 [3, 12] | Structure (SMILES) | Human microsome [1] | IC50 [3, 11] | Mouse microsome [4] | other results |
| --- | --- | --- | --- | --- | --- | --- |
| 9 nM | 6690 nM | CC1(C)CC(=O)C2=C(C1)Nc1n[nH]cc1C2c1cccc(Oc2nc3ccccc3[nH]2)c1 (stereo not shown) [Example 10] | – | – | – | IC50 [6, 13]: 22 nM |
| 6 nM | 9630 nM | O=C1CCCC2=C1C(c1cccc(Oc3nc4ccccc4[nH]3)c1)c1c[nH]nc1N2 (stereo not shown) [Example 5] | – | – | – | IC50 [6, 13]: 23 nM |
| – | – | CCOC(=O)c1[nH]cc2c1NC1=C(C(=O)CCC1)C2c1cccc(Oc2nc3ccccc3[nH]2)c1 (stereo not shown) [Example 2, ethyl 8-oxo-9-[3-(1H-benzimidazol-2-yloxy)phenyl]-4,5,6,7,8,9-hexahydro-2H-pyrrole[3,4-b]quinoline-3-carboxylate] | 32% | – | 50% | Metabolism measured in the presence of human microsomal fraction [1]: 32%; IC50 [2]: 4000 nM; IC50 ([3]; 96 hours treatment, read-out: IC50 HeLa (converted)): 67 nM; Chemical stability, HCl 0.05N 50/50 water/acetonitrile [7]: stable; Chemical stability, NaOH 0.05N 50/50 water/acetonitrile [7]: stable; Chemical stability, Phosphate buffer 25 mM pH = 7.4 50/50 water/acetonitrile [7]: stable; Chemical stability, Phosphate buffer 25 mM pH = 7.4 + 1% 2-mercaptoethanol 50/50 water/acetonitrile [7]: stable; Chemical stability, Phosphate buffer 25 mM pH = 7.4 + 1% benzylamine 50/50 water/acetonitrile [7]: stable; Metabolism measured in the presence of murine microsomal fraction [4]: 50%; IC50 ([5]; read-out: IC50 Aurora B/Incenp): 1 nM; IC50 [8]: 20 nM; Intrinsic clearance measured in the presence of human hepatocytes [9]: 0.121 (average of 5 determinations obtained with 5 ml · h^−1 · 10^−6 cells |
| 21 nM | 6860 nM | CCOC(=O)c1[nH]cc2c1NC1=C(C(=O)CC(C)(C)C1)C2c1cccc(Sc2nc3ccccc3[nH]2)c1 (stereo not shown) [Example 8] | 80% | – | 84% | IC50 [6]: 102 nM |
| 4 nM | 430 nM | CCOC(=O)c1[nH]cc2c1NC1=C(C(=O)CC(C)(C)C1)C2c1cccc(Oc2nc3ccccc3[nH]2)c1 (stereo not shown) [Example 7] | 65% | – | 96% | IC50 [6]: 3 nM |
| 10 nM | 20 nM | CCOC(=O)c1[nH]cc2c1NC1=C(C(=O)CCC1)C2c1ccc(Sc2nc3cccc(OC)c3[nH]2)o1 (stereo not shown) [Example 13] | 53% | – | 74% | inhibition at 1 µM [2]: 93% |
| – | – | CCOC(=O)c1[nH]cc2c1NC1=C(C(=O)CCC1)[C@@H]2c1ccc(Sc2nc3ccccc3[nH]2)o1 [Example 12] | 75% | 16 nM | 81% | Metabolism measured in the presence of human microsomal fraction [1]: 75%; IC50 [2]: 68 nM; Chemical stability, HCl 0.05N 50/50 water/acetonitrile [7]: stable; Chemical stability, NaOH 0.05N 50/50 water/acetonitrile [7]: stable; Chemical stability, Phosphate buffer 25 mM pH = 7.4 50/50 water/acetonitrile [7]: stable; Chemical stability, Phosphate buffer 25 mM pH = 7.4 + 1% 2-mercaptoethanol 50/50 water/acetonitrile [7]: unstable; Chemical stability, Phosphate buffer 25 mM pH = 7.4 + 1% benzylamine 50/50 water/acetonitrile [7]: stable; Metabolism measured in the presence of murine microsomal fraction [4]: 81%; IC50 [10]: 1 nM; Intrinsic clearance measured in the presence of human hepatocytes [9]: 0.29 (average of 3 determinations obtained with 3 ml · h^−1 · 10^−6 cells |

| Structure (SMILES) | IC50 [5] | IC50 [3, 12] | Human microsome [1] | IC50 [3, 11] | Mouse microsome [4] | other results |
| --- | --- | --- | --- | --- | --- | --- |
| CCOC(=O)c1[nH]cc2c1NC1=C(C(=O)CCC1)C2c1cccc(Oc2nc3ccccc3[nH]2)c1 (racemic) [Example 1, ethyl 8-oxo-9-[3-(1H-benzimidazol-2-yloxy)phenyl]-4,5,6,7,8,9-hexahydro-2H-pyrrolo[3,4-b]quinoline-3-carboxylate] | 4 nM | – | 37% | 205 nM | 31% | inhibition at 1 µM [2]: 78% |
| CCOC(=O)c1[nH]cc2c1NC1=C(C(=O)CCC1)C2c1cccc(Oc2nc3ccccc3[nH]2)c1 (single isomer, unassigned) [Example 3, ethyl 8-oxo-9-[3-(1H-benzimidazol-2-yloxy)phenyl]-4,5,6,7,8,9-hexahydro-2H-pyrrolo[3,4-b]quinoline-3-carboxylate] | 900 nM | – | – | > 10000 nM | – | – |
| O=C1CNCC2=C1C(c1cccc(Oc3nc4ccccc4[nH]3)c1)c1c[nH]nc1N2 (stereo not shown) [Example 6] | 13 nM | – | – | > 10000 nM | – | – |
| CCOC(=O)c1[nH]cc2c1NC1=C(C(=O)CCC1)C2c1cccc(Sc2nc3ccccc3[nH]2)c1 (stereo not shown) [Example 4] | 6 nM | – | 77% | 9660 nM | 67% | – |

Reference: patent publication US9073917B2, “Anti-cancer compound and pharmaceutical composition containing the same” (SANOFI, priority 2009, dated 2015)
